# Assay results taken from PubChem BioAssay AID2060489 (Molecular Pharmacology Branch, DTP, NCI, 2025).
# Tested on: 922993-354-T-J3-PDC complex spheroids, viability
# Assay: Anticancer human tumor 922993-354-T-J3-PDC patient-derived endometrial carcinoma cell line growth inhibition [GQUAD]
# Settings: for IC50: curve of first compound; for viability, T/C: stronger effect = lower value
# In short: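 Viability of tumor cells grown as complex spheroids with endothelial and stromal cells, exposed to drug combinations. Top concentration at or near clinical Cmax (else 10 microM), diluted in half-log increments.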
# [1] = second compound 0.0316 µM, first compound 0.0316 µM
# [2] = second compound 0.0316 µM, first compound 0.1 µM
# [3] = second compound 0.0316 µM, first compound 0.316 µM
# [4] = second compound 0.0316 µM, first compound 1 µM
# [5] = second compound 0.0316 µM, first compound 3.16 µM
# [6] = second compound 0.0316 µM, first compound 10 µM
# [7] = second compound 0.1 µM, first compound 0.0316 µM
# [8] = second compound 0.1 µM, first compound 0.1 µM
# [9] = second compound 0.1 µM, first compound 0.316 µM
# [10] = second compound 0.1 µM, first compound 1 µM
# [11] = second compound 0.1 µM, first compound 3.16 µM
# [12] = second compound 0.1 µM, first compound 10 µM
# [13] = second compound 0.316 µM, first compound 0.0316 µM
# [14] = second compound 0.316 µM, first compound 0.1 µM
# [15] = second compound 0.316 µM, first compound 0.316 µM
# [16] = second compound 0.316 µM, first compound 1 µM
# [17] = second compound 0.316 µM, first compound 3.16 µM
# [18] = second compound 0.316 µM, first compound 10 µM
# [19] = second compound 1 µM, first compound 0.0316 µM
# [20] = second compound 1 µM, first compound 0.1 µM
# [21] = second compound 1 µM, first compound 0.316 µM
# [22] = second compound 1 µM, first compound 1 µM
# [23] = second compound 1 µM, first compound 3.16 µM
# [24] = second compound 1 µM, first compound 10 µM
# [25] = second compound 3.16 µM, first compound 0.0316 µM
# [26] = second compound 3.16 µM, first compound 0.1 µM
# [27] = second compound 3.16 µM, first compound 0.316 µM
# [28] = second compound 3.16 µM, first compound 1 µM
# [29] = second compound 3.16 µM, first compound 3.16 µM
# [30] = second compound 3.16 µM, first compound 10 µM
# [31] = second compound 10 µM, first compound 0.0316 µM
# [32] = second compound 10 µM, first compound 0.1 µM
# [33] = second compound 10 µM, first compound 0.316 µM
# [34] = second compound 10 µM, first compound 1 µM
# [35] = second compound 10 µM, first compound 3.16 µM
# [36] = second compound 10 µM, first compound 10 µM
# 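Further: spheroids exposed to compounds for seven days.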
# 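Wherever viability, T/C is given: 100% = DMSO vehicle control viability.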
smiles,measurement,setting,value
COc1cc(C2c3cc4c(cc3C(OC3OC5COC(C)OC5C(O)C3O)C3COC(=O)C23)OCO4)cc(OC)c1O (stereo unspecified) + CN(C)c1ccc(Nc2c3ccc(NC(=O)CCN4CCCC4)cc3nc3cc(NC(=O)CCN4CCCC4)ccc23)cc1,IC50,second compound 0.0316 µM,> 10000 nM
same,IC50,second compound 0.1 µM,9490 nM
same,IC50,second compound 0.316 µM,9200 nM
same,IC50,second compound 1 µM,8940 nM
same,IC50,second compound 3.16 µM,> 10000 nM
same,IC50,second compound 10 µM,> 10000 nM
same,"viability, T/C",[1],116%
same,"viability, T/C",[2],90%
same,"viability, T/C",[3],90.7%
same,"viability, T/C",[4],88.1%
same,"viability, T/C",[5],72.5%
same,"viability, T/C",[6],58.3%
same,"viability, T/C",[7],109%
same,"viability, T/C",[8],102%
same,"viability, T/C",[9],91.3%
same,"viability, T/C",[10],85.2%
same,"viability, T/C",[11],81.1%
same,"viability, T/C",[12],46.3%
same,"viability, T/C",[13],90.6%
same,"viability, T/C",[14],101%
same,"viability, T/C",[15],83.7%
same,"viability, T/C",[16],79.5%
same,"viability, T/C",[17],82.9%
same,"viability, T/C",[18],46.9%
same,"viability, T/C",[19],79.7%
same,"viability, T/C",[20],79.7%
same,"viability, T/C",[21],105%
same,"viability, T/C",[22],71.5%
same,"viability, T/C",[23],95.8%
same,"viability, T/C",[24],46.1%
same,"viability, T/C",[25],109%
same,"viability, T/C",[26],99.3%
same,"viability, T/C",[27],114%
same,"viability, T/C",[28],98.5%
same,"viability, T/C",[29],91.8%
same,"viability, T/C",[30],58.3%
same,"viability, T/C",[31],94.4%
same,"viability, T/C",[32],106%
same,"viability, T/C",[33],111%
same,"viability, T/C",[34],79.3%
same,"viability, T/C",[35],106%
same,"viability, T/C",[36],70.5%
COc1ncnc(C2CC2)c1-c1ncc2cnn(Cc3ccc(-c4nc(C(F)(F)F)cn4C(C)C)cc3)c2n1 + Cc1cnc(CNC(=O)c2c(=O)c3ccc(N4CCCN(C)CC4)nc3n3c2sc2ccccc23)cn1,IC50,second compound 0.0316 µM,> 10000 nM
same,IC50,second compound 0.1 µM,> 10000 nM
same,IC50,second compound 0.316 µM,< 31.6 nM
same,IC50,second compound 1 µM,< 31.6 nM
same,IC50,second compound 3.16 µM,< 31.6 nM
same,IC50,second compound 10 µM,3230 nM
same,"viability, T/C",[1],98.1%
same,"viability, T/C",[2],72.7%
same,"viability, T/C",[3],80.5%
same,"viability, T/C",[4],48.3%
same,"viability, T/C",[5],59%
same,"viability, T/C",[6],63.4%
same,"viability, T/C",[7],67.8%
same,"viability, T/C",[8],44.2%
same,"viability, T/C",[9],45.6%
same,"viability, T/C",[10],44.3%
same,"viability, T/C",[11],51.4%
same,"viability, T/C",[12],70.4%
same,"viability, T/C",[13],41%
same,"viability, T/C",[14],34.5%
same,"viability, T/C",[15],41.8%
same,"viability, T/C",[16],49.3%
same,"viability, T/C",[17],51.3%
same,"viability, T/C",[18],52.7%
same,"viability, T/C",[19],44.5%
same,"viability, T/C",[20],44.6%
same,"viability, T/C",[21],41.6%
same,"viability, T/C",[22],46.3%
same,"viability, T/C",[23],54.9%
same,"viability, T/C",[24],67.1%
same,"viability, T/C",[25],40.9%
same,"viability, T/C",[26],41.7%
same,"viability, T/C",[27],50.3%
same,"viability, T/C",[28],49.2%
same,"viability, T/C",[29],43%
same,"viability, T/C",[30],55.7%
same,"viability, T/C",[31],48.6%
same,"viability, T/C",[32],47.7%
same,"viability, T/C",[33],52.6%
same,"viability, T/C",[34],49%
same,"viability, T/C",[35],53.3%
same,"viability, T/C",[36],40.1%
CCc1c2c(nc3ccc(O)cc13)-c1cc3c(c(=O)n1C2)COC(=O)[C@]3(O)CC + CN(C)c1ccc(Nc2c3ccc(NC(=O)CCN4CCCC4)cc3nc3cc(NC(=O)CCN4CCCC4)ccc23)cc1,IC50,second compound 0.0316 µM,6.5 nM
same,IC50,second compound 0.1 µM,6.99 nM
same,IC50,second compound 0.316 µM,6.11 nM
same,IC50,second compound 1 µM,6.51 nM
same,IC50,second compound 3.16 µM,6.83 nM
same,IC50,second compound 10 µM,8.98 nM
same,"viability, T/C","second compound 0.0316 µM, first compound 0.000999 µM",99.2%
same,"viability, T/C","second compound 0.0316 µM, first compound 0.00316 µM",78.4%
same,"viability, T/C","second compound 0.0316 µM, first compound 0.00999 µM",34.1%
same,"viability, T/C",[1],10.4%
same,"viability, T/C","second compound 0.0316 µM, first compound 0.0999 µM",10.1%
same,"viability, T/C",[3],20.1%
same,"viability, T/C","second compound 0.1 µM, first compound 0.000999 µM",96.4%
same,"viability, T/C","second compound 0.1 µM, first compound 0.00316 µM",94.1%
same,"viability, T/C","second compound 0.1 µM, first compound 0.00999 µM",30%
same,"viability, T/C",[7],7.58%
same,"viability, T/C","second compound 0.1 µM, first compound 0.0999 µM",12%
same,"viability, T/C",[9],16.8%
same,"viability, T/C","second compound 0.316 µM, first compound 0.000999 µM",90.6%
same,"viability, T/C","second compound 0.316 µM, first compound 0.00316 µM",74.3%
same,"viability, T/C","second compound 0.316 µM, first compound 0.00999 µM",32.5%
same,"viability, T/C",[13],9.44%
same,"viability, T/C","second compound 0.316 µM, first compound 0.0999 µM",12.3%
same,"viability, T/C",[15],13.8%
same,"viability, T/C","second compound 1 µM, first compound 0.000999 µM",96%
same,"viability, T/C","second compound 1 µM, first compound 0.00316 µM",77.5%
same,"viability, T/C","second compound 1 µM, first compound 0.00999 µM",34.4%
same,"viability, T/C",[19],12.8%
same,"viability, T/C","second compound 1 µM, first compound 0.0999 µM",11.8%
same,"viability, T/C",[21],17.7%
same,"viability, T/C","second compound 3.16 µM, first compound 0.000999 µM",96.7%
same,"viability, T/C","second compound 3.16 µM, first compound 0.00316 µM",79.8%
same,"viability, T/C","second compound 3.16 µM, first compound 0.00999 µM",36.3%
same,"viability, T/C",[25],11.4%
same,"viability, T/C","second compound 3.16 µM, first compound 0.0999 µM",12.9%
same,"viability, T/C",[27],20.6%
same,"viability, T/C","second compound 10 µM, first compound 0.000999 µM",111%
same,"viability, T/C","second compound 10 µM, first compound 0.00316 µM",89.1%
same,"viability, T/C","second compound 10 µM, first compound 0.00999 µM",49.3%
same,"viability, T/C",[31],14.4%
same,"viability, T/C","second compound 10 µM, first compound 0.0999 µM",17.4%
same,"viability, T/C",[33],23.3%
